According to publication PMC6210068 (ACS Omega, 2018):
One block for each compound: values may come before it.

Experiments:
hDAT [1] = target: T1, hDAT (Homo sapiens, UniProt Q01959); assay: Radioligand binding at DAT
rat kidney TSPO = rat kidney TSPO (Rattus norvegicus, UniProt P16257); assay: Radioligand binding at TSPO; conditions: TSPO, Ki, rat TSPO; [3H]PK11195
hNOP = hNOP (Homo sapiens, UniProt P41146); assay: Radioligand binding at NOP
KOR [2] = target: T2, KOR (Homo sapiens, UniProt P41145); assay: β-arrestin-recruitment TANGO assay at KOR; assay type: cell-based; conditions: 10 μM; vs naloxone 121 = 100% inhibition; agonist 109 (3 nM)
T2 sequence (P41145 whole entry): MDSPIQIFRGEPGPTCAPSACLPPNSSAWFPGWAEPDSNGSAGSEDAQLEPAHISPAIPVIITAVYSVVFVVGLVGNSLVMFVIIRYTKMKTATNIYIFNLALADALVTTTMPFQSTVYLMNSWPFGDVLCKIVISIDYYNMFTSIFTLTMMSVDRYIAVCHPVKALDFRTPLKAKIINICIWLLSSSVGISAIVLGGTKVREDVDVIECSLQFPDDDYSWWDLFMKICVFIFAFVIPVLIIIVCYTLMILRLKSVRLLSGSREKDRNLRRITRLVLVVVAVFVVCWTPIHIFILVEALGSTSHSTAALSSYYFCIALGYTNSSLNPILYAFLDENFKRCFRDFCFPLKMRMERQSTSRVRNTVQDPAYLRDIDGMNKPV

hA3AR [3] = target: T3, hA3AR (Homo sapiens, UniProt P0DMS8); assay: hA3AR-mediated inhibition of cAMP formation; assay type: cell-based; conditions: read-out: maximal efficacy, hA3AR-mediated inhibition of cAMP formation
T3 sequence (P0DMS8 1-318): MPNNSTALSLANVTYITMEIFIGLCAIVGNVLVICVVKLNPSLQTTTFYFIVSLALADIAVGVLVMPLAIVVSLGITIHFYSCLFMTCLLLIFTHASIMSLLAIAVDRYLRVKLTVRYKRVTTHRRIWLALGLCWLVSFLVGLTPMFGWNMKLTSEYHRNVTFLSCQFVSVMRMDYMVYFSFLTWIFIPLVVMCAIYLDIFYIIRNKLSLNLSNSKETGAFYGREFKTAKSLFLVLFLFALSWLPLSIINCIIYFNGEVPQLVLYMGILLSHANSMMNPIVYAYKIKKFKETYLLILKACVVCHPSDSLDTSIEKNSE

hSERT = hSERT (Homo sapiens, UniProt P31645); assay: hSERT binding and serotonin uptake
Chain of hSERT (P31645 whole entry): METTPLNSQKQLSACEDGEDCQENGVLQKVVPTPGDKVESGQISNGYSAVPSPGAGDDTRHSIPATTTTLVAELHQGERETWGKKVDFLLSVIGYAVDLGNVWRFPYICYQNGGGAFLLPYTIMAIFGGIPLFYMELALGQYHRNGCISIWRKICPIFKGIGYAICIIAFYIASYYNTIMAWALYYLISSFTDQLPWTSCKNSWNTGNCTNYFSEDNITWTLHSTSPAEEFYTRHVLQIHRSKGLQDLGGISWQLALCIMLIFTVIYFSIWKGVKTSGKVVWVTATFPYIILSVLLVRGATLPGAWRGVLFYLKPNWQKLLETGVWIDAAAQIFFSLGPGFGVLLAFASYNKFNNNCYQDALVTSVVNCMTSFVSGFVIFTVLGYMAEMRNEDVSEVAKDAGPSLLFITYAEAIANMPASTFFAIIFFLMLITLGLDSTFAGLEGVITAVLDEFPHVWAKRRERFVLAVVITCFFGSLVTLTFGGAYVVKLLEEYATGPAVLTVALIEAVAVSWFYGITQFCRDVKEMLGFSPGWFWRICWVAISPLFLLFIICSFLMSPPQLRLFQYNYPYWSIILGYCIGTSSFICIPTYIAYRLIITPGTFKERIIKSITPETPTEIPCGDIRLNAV

DOR [4] = target: T4, DOR (Homo sapiens, UniProt P41143); assay: β-arrestin-recruitment TANGO assay at DOR; assay type: cell-based; conditions: 10 μM
T4 sequence (P41143 whole entry): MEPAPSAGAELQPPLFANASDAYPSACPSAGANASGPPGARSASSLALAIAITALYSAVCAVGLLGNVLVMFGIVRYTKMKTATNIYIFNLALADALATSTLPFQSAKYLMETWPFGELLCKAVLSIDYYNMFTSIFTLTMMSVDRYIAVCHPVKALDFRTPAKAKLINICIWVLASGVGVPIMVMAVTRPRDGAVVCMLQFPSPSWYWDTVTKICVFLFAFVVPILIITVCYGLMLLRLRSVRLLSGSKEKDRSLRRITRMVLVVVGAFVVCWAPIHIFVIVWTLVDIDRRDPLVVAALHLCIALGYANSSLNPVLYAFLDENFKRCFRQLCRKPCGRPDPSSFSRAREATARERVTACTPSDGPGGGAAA

CYP3A4 = CYP3A4 (Homo sapiens, UniProt P08684); assay: Cytochrome P450 inhibition in human microsomes, 3A4; assay type: in vitro ADME; conditions: CYP450 3A4 IC50, human microsomes
Chain of CYP3A4 (P08684 whole entry): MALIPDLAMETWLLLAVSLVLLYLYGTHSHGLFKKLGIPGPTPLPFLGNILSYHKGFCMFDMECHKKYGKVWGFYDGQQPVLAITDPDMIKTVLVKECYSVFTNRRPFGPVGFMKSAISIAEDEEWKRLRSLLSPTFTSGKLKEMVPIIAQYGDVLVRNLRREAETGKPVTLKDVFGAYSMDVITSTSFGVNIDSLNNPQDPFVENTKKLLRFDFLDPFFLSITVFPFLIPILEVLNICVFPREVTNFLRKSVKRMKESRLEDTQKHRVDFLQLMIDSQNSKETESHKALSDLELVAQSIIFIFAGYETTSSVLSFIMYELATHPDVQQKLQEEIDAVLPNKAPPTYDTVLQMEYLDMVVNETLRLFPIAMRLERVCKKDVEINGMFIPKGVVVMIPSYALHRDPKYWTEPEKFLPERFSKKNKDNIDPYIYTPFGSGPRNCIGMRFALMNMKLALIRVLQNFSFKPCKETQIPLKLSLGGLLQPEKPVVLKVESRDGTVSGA

CYP2C9 = CYP2C9 (Homo sapiens, UniProt P11712); assay: Cytochrome P450 inhibition in human microsomes, 2C9; assay type: in vitro ADME; conditions: CYP450 2C9 IC50, human microsomes
[5] = Pharmacokinetics after intravenous and oral administration; assay type: in vivo, male Sprague Dawley rats
mA2AAR = mA2AAR (Mus musculus, UniProt Q60613); assay: mA2AAR binding; conditions: read-out: mA2AAR binding, % inhibition at 10 μM
CYP2D6 = CYP2D6 (Homo sapiens, UniProt P10635); assay: Cytochrome P450 inhibition in human microsomes, 2D6; assay type: in vitro ADME; conditions: CYP450 2D6 IC50, human microsomes
CACO-2 cell permeability = assay type: in vitro ADME; conditions: human, Caco-2, pH 7.4
CACO-2 cells = assay: CACO-2 cell permeability; assay type: in vitro ADME; conditions: human, Caco-2, 120 min, 10 µM, pH 7.4
Human plasma stability = assay type: in vitro ADME; conditions: after 2 h
MOR [6] = target: T5, MOR (Homo sapiens, UniProt P35372); assay: biochemical; assay type: binding
T5 sequence (P35372 whole entry): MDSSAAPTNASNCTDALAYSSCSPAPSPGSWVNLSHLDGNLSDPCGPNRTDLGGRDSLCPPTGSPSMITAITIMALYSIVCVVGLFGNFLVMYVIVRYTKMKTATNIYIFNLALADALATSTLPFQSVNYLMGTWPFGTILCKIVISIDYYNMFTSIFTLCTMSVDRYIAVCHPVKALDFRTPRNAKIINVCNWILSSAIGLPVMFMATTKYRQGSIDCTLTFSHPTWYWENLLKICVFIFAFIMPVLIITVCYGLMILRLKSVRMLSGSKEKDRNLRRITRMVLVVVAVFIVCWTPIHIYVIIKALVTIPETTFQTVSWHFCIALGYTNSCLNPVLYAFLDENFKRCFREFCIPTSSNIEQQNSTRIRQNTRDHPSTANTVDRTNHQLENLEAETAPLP

CYP1A2 = CYP1A2 (Homo sapiens, UniProt P05177); assay: Cytochrome P450 inhibition in human microsomes, 1A2; assay type: in vitro ADME; conditions: CYP450 1A2 IC50, human microsomes
CYP2C19 = CYP2C19 (Homo sapiens, UniProt P33261); assay: Cytochrome P450 inhibition in human microsomes, 2C19; assay type: in vitro ADME; conditions: CYP450 2C19 IC50, human microsomes
hERG = hERG (Homo sapiens, UniProt Q12809); assay: hERG inhibition, fluorescence polarization assay; assay type: binding
Chain of hERG (Q12809 whole entry): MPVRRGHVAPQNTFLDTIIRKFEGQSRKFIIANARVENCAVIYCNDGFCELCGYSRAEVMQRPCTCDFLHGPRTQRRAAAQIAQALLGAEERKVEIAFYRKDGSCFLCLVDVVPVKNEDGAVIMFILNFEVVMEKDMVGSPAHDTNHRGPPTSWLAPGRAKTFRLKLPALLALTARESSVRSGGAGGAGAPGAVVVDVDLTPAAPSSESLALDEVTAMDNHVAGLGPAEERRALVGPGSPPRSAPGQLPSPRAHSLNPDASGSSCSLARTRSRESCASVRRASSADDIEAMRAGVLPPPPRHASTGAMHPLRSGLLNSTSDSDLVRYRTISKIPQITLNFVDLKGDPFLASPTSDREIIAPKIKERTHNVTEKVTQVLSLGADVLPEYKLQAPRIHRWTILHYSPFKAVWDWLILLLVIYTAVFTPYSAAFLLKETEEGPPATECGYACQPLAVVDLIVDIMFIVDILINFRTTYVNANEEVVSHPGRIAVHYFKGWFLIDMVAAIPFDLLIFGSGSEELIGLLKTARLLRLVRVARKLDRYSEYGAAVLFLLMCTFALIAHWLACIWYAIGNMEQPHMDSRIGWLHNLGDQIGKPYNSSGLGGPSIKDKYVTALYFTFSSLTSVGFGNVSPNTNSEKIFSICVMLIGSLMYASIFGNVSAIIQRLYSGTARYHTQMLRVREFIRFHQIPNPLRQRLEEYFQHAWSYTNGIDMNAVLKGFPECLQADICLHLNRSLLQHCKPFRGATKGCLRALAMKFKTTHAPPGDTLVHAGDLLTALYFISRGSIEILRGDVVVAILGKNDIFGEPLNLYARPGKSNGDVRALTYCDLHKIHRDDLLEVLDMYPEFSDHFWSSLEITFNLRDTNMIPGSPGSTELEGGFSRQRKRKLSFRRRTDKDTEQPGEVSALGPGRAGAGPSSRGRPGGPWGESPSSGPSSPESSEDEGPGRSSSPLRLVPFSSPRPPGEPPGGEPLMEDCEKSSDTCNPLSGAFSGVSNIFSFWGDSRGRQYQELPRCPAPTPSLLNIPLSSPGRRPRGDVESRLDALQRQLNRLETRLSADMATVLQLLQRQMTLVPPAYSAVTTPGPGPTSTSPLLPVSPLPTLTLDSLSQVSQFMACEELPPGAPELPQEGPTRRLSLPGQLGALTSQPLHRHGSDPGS

KOR [7] = target: T2, KOR; assay: biochemical; assay type: binding; conditions: for Ki: KOR, [3H]U69593, mean ± SEM, N = 2–4
hNET = hNET (Homo sapiens, UniProt P23975); assay: hNET binding, [125I]118
mA1AR = target: T6, mA1AR (Mus musculus, UniProt Q60612); assay: mA1AR binding; conditions: read-out: mA1AR binding, % inhibition at 10 μM
T6 sequence (Q60612 1-326): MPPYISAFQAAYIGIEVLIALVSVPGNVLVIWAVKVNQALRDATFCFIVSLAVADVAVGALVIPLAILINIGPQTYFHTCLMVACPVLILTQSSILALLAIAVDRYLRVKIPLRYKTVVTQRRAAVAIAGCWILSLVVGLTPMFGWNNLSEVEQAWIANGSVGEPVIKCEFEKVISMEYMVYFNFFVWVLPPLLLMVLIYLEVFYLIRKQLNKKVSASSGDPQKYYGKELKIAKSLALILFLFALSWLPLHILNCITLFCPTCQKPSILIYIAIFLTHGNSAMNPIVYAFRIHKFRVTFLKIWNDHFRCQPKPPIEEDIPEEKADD

hA3AR [8] = target: T3, hA3AR; assay: A3AR binding; conditions: for reduction of hA3AR binding affinity by 7-deaza modification: 28 vs 24, 54 vs 49, 55 vs 51
MOR [9] = target: T5, MOR; assay: β-arrestin-recruitment TANGO assay at MOR; assay type: cell-based; conditions: 10 μM
KOR [10] = target: T2, KOR; assay type: cell-based; conditions: antagonism of 1 μM U69593 98
hDAT [11] = target: T1, hDAT; assay: hDAT binding modulation, [3H]mazindol 119
DOR [12] = target: T4, DOR; assay: Radioligand binding at DOR
hDAT [13] = target: T1, hDAT; assay: [3H]dopamine uptake inhibition at hDAT; assay type: cell-based
hA1AR = target: T7, hA1AR (Homo sapiens, UniProt P30542); assay: hA1AR binding
T7 sequence (P30542 1-326): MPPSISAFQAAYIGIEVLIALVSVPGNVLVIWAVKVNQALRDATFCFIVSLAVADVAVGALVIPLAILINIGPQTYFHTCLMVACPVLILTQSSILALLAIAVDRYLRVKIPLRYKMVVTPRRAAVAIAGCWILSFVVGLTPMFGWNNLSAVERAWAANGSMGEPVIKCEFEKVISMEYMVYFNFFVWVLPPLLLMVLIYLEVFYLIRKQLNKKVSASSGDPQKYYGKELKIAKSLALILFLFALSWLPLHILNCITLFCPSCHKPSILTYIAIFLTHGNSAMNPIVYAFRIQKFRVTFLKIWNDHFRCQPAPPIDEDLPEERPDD

muscarinic M1 receptor = muscarinic M1 receptor (Homo sapiens, UniProt P11229); assay: PDSP off-target binding, muscarinic M1
5HT2B serotonin receptor = 5HT2B serotonin receptor (Homo sapiens, UniProt P41595); assay: PDSP off-target binding, 5HT2B
5HT2A serotonin receptor = 5HT2A serotonin receptor (Homo sapiens, UniProt P28223); assay: PDSP off-target binding, 5HT2A
Chain of 5HT2A serotonin receptor (P28223 whole entry): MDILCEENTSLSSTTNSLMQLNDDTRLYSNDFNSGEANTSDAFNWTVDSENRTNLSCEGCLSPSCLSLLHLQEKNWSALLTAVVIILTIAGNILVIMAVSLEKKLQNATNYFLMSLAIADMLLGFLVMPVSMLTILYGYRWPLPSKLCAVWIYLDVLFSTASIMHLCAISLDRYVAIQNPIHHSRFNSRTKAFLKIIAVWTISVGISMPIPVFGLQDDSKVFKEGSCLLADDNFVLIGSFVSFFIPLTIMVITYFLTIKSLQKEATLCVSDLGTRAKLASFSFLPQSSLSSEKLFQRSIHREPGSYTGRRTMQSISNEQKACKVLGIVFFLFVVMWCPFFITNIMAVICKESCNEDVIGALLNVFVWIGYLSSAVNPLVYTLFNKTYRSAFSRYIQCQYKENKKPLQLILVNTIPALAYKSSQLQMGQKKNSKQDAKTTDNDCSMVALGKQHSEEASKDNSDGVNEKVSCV

rat σ2 receptor = target: T8, rat σ2 receptor (Rattus norvegicus, UniProt Q5U3Y7); assay: PDSP binding, σ2 receptor
T8 sequence (Q5U3Y7 1-176): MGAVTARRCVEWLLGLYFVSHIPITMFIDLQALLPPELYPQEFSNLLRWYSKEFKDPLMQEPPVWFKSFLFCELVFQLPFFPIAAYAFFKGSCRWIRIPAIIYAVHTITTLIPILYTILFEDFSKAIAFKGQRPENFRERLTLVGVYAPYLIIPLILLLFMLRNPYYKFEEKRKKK

[14] = target: rat brain benzodiazepine receptor; assay: PDSP binding, rat brain benzodiazepine receptor; conditions: read-out: rat brain benzodiazepine receptor, Ki
[15] = male, Sprague-Dawley, rat, plasma, po

T1 sequence (Q01959 whole entry): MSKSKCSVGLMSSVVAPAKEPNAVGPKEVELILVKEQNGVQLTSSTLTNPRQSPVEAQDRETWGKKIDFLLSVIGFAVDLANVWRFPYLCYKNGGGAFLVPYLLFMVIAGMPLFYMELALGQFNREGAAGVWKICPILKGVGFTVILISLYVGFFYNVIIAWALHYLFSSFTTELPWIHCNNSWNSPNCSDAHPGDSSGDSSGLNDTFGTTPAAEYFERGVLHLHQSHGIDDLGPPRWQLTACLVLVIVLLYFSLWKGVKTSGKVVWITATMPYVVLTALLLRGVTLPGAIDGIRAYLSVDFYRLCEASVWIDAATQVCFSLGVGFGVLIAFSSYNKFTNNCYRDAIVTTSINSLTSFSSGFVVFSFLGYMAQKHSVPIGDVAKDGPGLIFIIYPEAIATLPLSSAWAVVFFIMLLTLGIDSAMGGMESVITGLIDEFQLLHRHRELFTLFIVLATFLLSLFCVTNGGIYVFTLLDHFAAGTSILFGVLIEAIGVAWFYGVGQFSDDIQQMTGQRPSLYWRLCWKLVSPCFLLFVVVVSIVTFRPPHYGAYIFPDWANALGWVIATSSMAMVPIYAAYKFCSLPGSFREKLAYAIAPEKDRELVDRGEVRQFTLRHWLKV
Chain of rat kidney TSPO (P16257 whole entry): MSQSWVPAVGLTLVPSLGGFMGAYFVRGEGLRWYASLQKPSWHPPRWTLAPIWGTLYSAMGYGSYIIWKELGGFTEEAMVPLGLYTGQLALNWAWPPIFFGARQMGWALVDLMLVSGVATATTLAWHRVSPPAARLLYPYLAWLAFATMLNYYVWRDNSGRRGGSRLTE

EC50 (hDAT [1]): > 1000 nM
DAT, inhibition, % of control at 10 μM (hDAT [1]; 10 μM, [3H]WIN35428, negative = enhanced radioligand binding): –172 ± 57 (3) %
Ki (rat kidney TSPO): 869 ± 160 nM
Ki (hNOP): 3.71 ± 0.78 µM
KOR Antag (%) (KOR [2]): 99.6%
Emax at 10 µM (hA3AR [3]): 0.59 ± 6.62%
hSERT binding enhancement / serotonin uptake inhibition potency (hSERT): > 10 µM
DOR Antag (%) (DOR [4]; vs naloxone 121 = 100% inhibition): 85.4%
DOR Ag (%) (DOR [4]; vs standard agonist = 100%): –0.6%
IC50 (CYP3A4): ≥ 10 µM
IC50 (CYP2C9): ≥ 10 µM
MRT [5, 15]: 2.3 to 2.8 h
half-life [5, 15]: 96 to 132 min
oral bioavailability F ([5]; p.o. 1 mg/kg, 1 mg/kg): 58%
oral bioavailability F ([5]; p.o. 10 mg/kg, 10 mg/kg): 60%
inhibition at 10 µM (mA2AAR): 10%
IC50 (CYP2D6): ≥ 10 µM
Papp A→B at 120 min, 10 µM (CACO-2 cell permeability): 1.42 ×10⁻⁶ cm/s
Efflux Ratio (CACO-2 cells): 15.6
stability in human plasma, remaining (Human plasma stability): 98%
Ki (MOR [6]): 0.637 ± 0.367 µM
IC50 (CYP1A2): ≥ 10 µM
IC50 (CYP2C19): ≥ 10 µM
ligand efficiency (KOR [7]; KOR binding): 0.25
Ki (KOR [7]): 42 ± 1 nM
preference for KOR in comparison to DOR (KOR [7]; ratio of Ki): 19 fold
preference for KOR in comparison to MOR (KOR [7]; ratio of Ki): 15 fold
preference for KOR in comparison to TSPO (KOR [7]; ratio of Ki): ~20 fold
EC50 (hNET): > 10 µM
inhibition at 10 µM (mA1AR): 32%
Ki (hA3AR [8]): 448 ± 13 nM
reduction of hA3AR binding affinity by 7-deaza modification (hA3AR [8]): 31 fold
MOR Antag (%) (MOR [9]; vs naloxone 121 = 100% inhibition, agonist 99 (300 nM)): 96.4%
MOR Ag (%) (MOR [9]; vs standard agonist = 100%): 0.4%
βarrestin2 recruitment, Imax (% 120) (KOR [10]): 92 ± 1 % 120
EC50 (hDAT [11]): 2160 ± 550 nM
hDAT [3H]119 binding, % control binding (maximal) (hDAT [11]): 267 ± 17%
Ki (DOR [12]): 0.786 ± 0.21 µM
IC50 (hDAT [13]): > 9.8 µM
SMILES: CCOC(=O)[C@@]12C[C@@H]1[C@@H](n1ccc3c(NC)nc(C#Cc4ccc(Cl)s4)nc31)[C@H](O)[C@@H]2O [compound 28, Ethyl(1S,2R,3S,4R,5S)-4-(2-((5-chlorothiophen-2-yl)ethynyl)-4-(methylamino)-7H-pyrrolo[2,3-d]pyrimidin-7-yl)-2,3-dihydroxybicyclo[3.1.0]hexane-1-carboxylate]
IC50 (hERG): > 30 µM

Ki (rat kidney TSPO): 2120 ± 230 nM
Ki (hA1AR): 1300 nM
Ki (muscarinic M1 receptor): 6.97 µM
Ki (MOR [6]): 4.02 ± 0.89 µM
Ki (5HT2B serotonin receptor): 3.06 ± 0.17 µM
Ki (KOR [7]): 1370 ± 180 nM
Ki (hA3AR [8]): 217 ± 65 nM
reduction of hA3AR binding affinity by 7-deaza modification (hA3AR [8]): 11 fold
Ki (DOR [12]): 3.66 ± 1.33 µM
SMILES: O[C@@H]1[C@H](O)[C@@H]2C[C@@H]2[C@H]1n1ccc2c(NCCc3ccccc3)nc(C#Cc3ccccc3)nc21 [compound 55, (1R,2R,3S,4R,5S)-4-(4-(Phenethylamino)-2-(phenylethynyl)-7H-pyrrolo[2,3-d]pyrimidin-7-yl)bicyclo[3.1.0]hexane-2,3-diol]

Ki (5HT2A serotonin receptor): 4.34 ± 1.74 µM
Ki (MOR [6]): > 10 µM
Ki (KOR [7]): 3020 ± 90 nM
Ki (rat σ2 receptor): 6.92 µM
Ki (hA3AR [8]): 2440 ± 430 nM
Ki [14]: 118 nM
Ki (DOR [12]): > 10 µM
SMILES: O[C@@H]1[C@H](O)[C@@H]2C[C@@H]2[C@H]1n1ccc2c(NC(C3CC3)C3CC3)nc(C#Cc3ccc(Br)s3)nc21 [compound 57, (1R,2R,3S,4R,5S)-4-(2-((5-Bromothiophen-2-yl)ethynyl)-4-((dicyclopropylmethyl)amino)-7H-pyrrolo[2,3-d]pyrimidin-7-yl)bicyclo[3.1.0]hexane-2,3-diol]
